How the values were obtained:
Assay type in all cases: in vivo
[1] = system: Myzus persicae (Green Peach Aphid); test: Example B13: Myzus persicae, sucrose solution under Parafilm, 96-well; settings: 120 h, application rate of 50 ppm, 5 days after infestation
Summary of the method: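 Compounds from 10′000 ppm DMSO stocks mixed into sucrose solution, with aphids feeding through a Parafilm membrane in inverted plates. Mortality assessed 5 days after infestation.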

[2] = system: Spodoptera littoralis (Egyptian Cotton Leaf Worm); test: Example B9: Spodoptera littoralis, cotton leaf discs sprayed, L1 larvae; settings: foliar, 72 h, application rate of 200 ppm, five L1 larvae, 3 days after infestation, in comparison to untreated samples, read-out: control in at least one of the categories (mortality, anti-feedant effect, or growth inhibition)
Summary of the method: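 Cotton leaf discs on agar sprayed with aqueous solutions made from 10′000 ppm DMSO stocks, dried, then infested with five L1 larvae. Mortality, anti-feeding and growth inhibition assessed against untreated samples 3 days after infestation; control counted when any category exceeded untreated.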

[3] = system: Plutella xylostella (Diamondback Moth); test: Example B14: Plutella xylostella, artificial diet in 96-well plates, eggs; settings: 216 h, application rate of 500 ppm, 9 days after infestation
Summary of the method: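 Artificial diet in microtiter wells treated with aqueous dilutions of DMSO stocks, dried, then infested with ~30 eggs per well; hatching L1 larvae feed on treated diet. Mortality scored 9 days after infestation.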

[4] = system: Myzus persicae (Green Peach Aphid); test: Example B8: Myzus persicae intrinsic activity, sucrose solution under Parafilm, 24-well; settings: 120 h, test rate of 12 ppm, 5 days after infestation
Summary of the method: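 Compounds, diluted from 10′000 ppm DMSO stocks, were mixed with sucrose solution in wells sealed with stretched Parafilm. Aphid-infested pea seedlings were placed on the Parafilm, and the covered plate was turned upside down. Mortality was scored 5 days after infestation.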

[5] = system: Diabrotica balteata (Corn Root Worm); test: Example B1: Diabrotica balteata, maize sprouts sprayed, L2 larvae; settings: 96 h, application rate of 200 ppm, 4 days after infestation, in comparison to untreated samples, read-out: effect in at least one of the two categories (mortality or growth inhibition)
Summary of the method: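 Maize sprouts on agar sprayed with aqueous test solutions made from 10′000 ppm DMSO stocks, dried, then infested with 6–10 L2 larvae per well. Mortality and growth inhibition scored against untreated samples 4 days after infestation.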

[6] = system: Euschistus heros (Neotropical Brown Stink Bug); test: Example B2: Euschistus heros, soybean leaves sprayed, N2 nymphs; settings: 120 h, application rate of 200 ppm, 5 days after infestation, in comparison to untreated samples, read-out: effect in at least one of the two categories (mortality or growth inhibition)
Description: Example B2: Euschistus heros (Neotropical Brown Stink Bug)
Soybean leaves on agar in 24-well microtiter plates were sprayed with aqueous test solutions prepared from 10′000 ppm DMSO stock solutions. After drying the leaves were infested with N2 nymphs. The samples were assessed for mortality and growth inhibition in comparison to untreated samples 5 days after infestation.
The following compounds gave an effect of at least 80% in at least one of the two categories (mortality or growth inhibition) at an application rate of 200 ppm: • P1, P2, P3, P7, P11, P12, P16, P17, P18, P22, P25, P29, P32, P33, P37, P38

[7] = system: Spodoptera littoralis (Egyptian Cotton Leaf Worm); test: Example B10: Spodoptera littoralis, uptake by lettuce roots from agar, eggs; settings: 144 h, test rate of 12.5 ppm, lettuce root uptake, 6 days after infestation, in comparison to untreated samples, read-out: effect in at least one of the three categories (mortality, anti-feeding, or growth inhibition)
Text: Example B10: Spodoptera littoralis (Egyptian Cotton Leaf Worm)
Test compounds were applied by pipette from 10′000 ppm DMSO stock solutions into 24-well plates and mixed with agar. Lettuce seeds were placed onto the agar and the multi well plate was closed by another plate which contained also agar. After 7 days the compound was absorbed by the roots and the lettuce grew into the lid plate. The lettuce leaves were then cut off into the lid plate. Spodoptera eggs were pipetted through a plastic stencil onto a humid gel blotting paper and the lid plate was closed with it. The samples were assessed for mortality, anti-feedant effect and growth inhibition in comparison to untreated samples 6 days after infestation.
The following compounds gave an effect of at least 80% in at least one of the three categories (mortality, anti-feeding, or growth inhibition) at a test rate of 12.5 ppm: • P3, P15, P32

[8] = system: Chilo suppressalis (Striped Rice Stemborer); test: Example B4: Chilo suppressalis, artificial diet, L2 larvae; settings: 144 h, application rate of 200 ppm, 6 days after infestation, in comparison to untreated samples, read-out: control in at least one of the categories (mortality, anti-feedant effect, or growth inhibition)
Summary of the method: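 Artificial diet was treated with aqueous dilutions made from 10'000 ppm DMSO stocks, dried, then infested with L2 larvae at 6–8 per well. Mortality, antifeedant effect and growth inhibition were assessed against untreated samples 6 days after infestation.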

[9] = system: Plutella xylostella (Diamond Back Moth); test: Example B5: Plutella xylostella, artificial diet in 24-well plates, eggs; settings: 192 h, application rate of 200 ppm, 8 days after infestation, in comparison to untreated samples, read-out: effect in at least one of the two categories (mortality or growth inhibition)
Summary of the method: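 Artificial diet in 24-well plates treated with aqueous test solutions made from 10′000 ppm DMSO stocks, dried, then infested with Plutella eggs. Mortality and growth inhibition scored against untreated samples 8 days after infestation.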

[10] = system: Tetranychus urticae (Two-Spotted Spider Mite); test: Example B11: Tetranychus urticae feeding/contact activity, bean leaf discs; settings: foliar, 192 h
Description: Example B11: Tetranychus urticae (Two-Spotted Spider Mite): Feeding/Contact Activity
Bean leaf discs on agar in 24-well microtiter plates were sprayed with aqueous test solutions prepared from 10′000 ppm DMSO stock solutions. After drying the leaf discs were infested with a mite population of mixed ages. The samples were assessed for mortality on mixed population (mobile stages) 8 days after infestation.

[11] = system: Myzus persicae (Green Peach Aphid); test: Example B6: Myzus persicae feeding/contact activity, sunflower leaf discs; settings: foliar, 144 h, application rate of 200 ppm, aphid population of mixed ages, 6 days after infestation
Description: Example B6: Myzus persicae (Green Peach Aphid): Feeding/Contact Activity
(§1) Sunflower leaf discs were placed onto agar in a 24-well microtiter plate and sprayed with aqueous test solutions prepared from 10′000 ppm DMSO stock solutions. After drying, the leaf discs were infested with an aphid population of mixed ages. The samples were assessed for mortality 6 days after infestation.

[12] = system: Thrips tabaci (Onion thrips); test: Example B12: Thrips tabaci feeding/contact activity, sunflower leaf discs; settings: foliar, 144 h, application rate of 200 ppm, thrips population of mixed ages, 6 days after infestation
Description: Example B12: Thrips tabaci (Onion thrips): Feeding/Contact Activity
as §1, with “on” for “onto”, “in” for “in a”, “plates” for “plate”, “drying” for “drying,”, “a thrips” for “an aphid”

[13] = system: Myzus persicae (Green Peach Aphid); test: Example B7: Myzus persicae systemic activity, pea seedling roots in test solution; settings: 144 h, test rate of 24 ppm, 6 days after placing seedlings into test solutions
Description: Example B7: Myzus persicae (Green Peach Aphid): Systemic Activity
Roots of pea seedlings infested with an aphid population of mixed ages were placed directly into aqueous test solutions prepared from 10′000 DMSO stock solutions. The samples were assessed for mortality 6 days after placing seedlings into test solutions.

CC(NC(=O)c1cc(Cl)cc(OC(F)(F)F)c1)c1nc(Br)nn1-c1ncccn1 (stereo not shown) [Compound P32, N-[1-(5-bromo-2-pyrimidin-2-yl-1,2,4-triazol-3-yl)ethyl]-3-chloro-5-(trifluoromethoxy)ben zamide]
≥ 80%: mortality at 50 ppm [1] | percent control (mortality, anti-feedant effect or growth inhibition) at 200 ppm [2] | mortality at 500 ppm [3] | mortality at 12 ppm [4] | percent effect (mortality or growth inhibition) at 200 ppm [5] | percent effect (mortality or growth inhibition) at 200 ppm [6] | percent effect (mortality, anti-feeding or growth inhibition) at 12.5 ppm [7] | percent control (mortality, anti-feedant effect or growth inhibition) at 200 ppm [8] | percent effect (mortality or growth inhibition) at 200 ppm [9]

COCCOc1nc(C(C)NC(=O)c2cc(C(F)(F)F)cc(C(F)(F)F)c2)n(-c2ncccn2)n1 (stereo not shown) [Compound P36, N-[1-[5-(2-methoxyethoxy)-2-pyrimidin-2-yl-1,2,4-triazol-3-yl]ethyl]-3,5-bis(trifluoromethyl) benzamide]
≥ 80%: mortality at 200 ppm [10] | percent control (mortality, anti-feedant effect or growth inhibition) at 200 ppm [2] | mortality at 12 ppm [4] | percent control (mortality, anti-feedant effect or growth inhibition) at 200 ppm [8] | percent effect (mortality or growth inhibition) at 200 ppm [9]

CC(c1nc(Cl)nn1-c1ncccn1)N(C)C(=O)c1cc(C(F)(F)F)cc(C(F)(F)F)c1 (stereo not shown) [Compound P15, N-[1-(5-chloro-2-pyrimidin-2-yl-1,2,4-triazol-3-yl)ethyl]-N-methyl-3,5-bis(trifluoromethyl)benzamide]
≥ 80%: mortality at 50 ppm [1] | percent control (mortality, anti-feedant effect or growth inhibition) at 200 ppm [2] | mortality at 500 ppm [3] | percent effect (mortality or growth inhibition) at 200 ppm [5] | percent effect (mortality, anti-feeding or growth inhibition) at 12.5 ppm [7] | percent effect (mortality or growth inhibition) at 200 ppm [9]

CC(c1nc(Br)nn1-c1ncccn1)N(C)C(=O)c1cc(C(F)(F)F)cc(C(F)(F)F)c1 (stereo not shown) [Compound P3, N-[1-(5-bromo-2-pyrimidin-2-yl-1,2,4-triazol-3-yl)ethyl]-N-methyl-3,5-bis(trifluoromethyl)benzamide]
≥ 80%: mortality at 50 ppm [1] | percent control (mortality, anti-feedant effect or growth inhibition) at 200 ppm [2] | mortality at 200 ppm [11] | mortality at 500 ppm [3] | mortality at 12 ppm [4] | percent effect (mortality or growth inhibition) at 200 ppm [5] | percent effect (mortality or growth inhibition) at 200 ppm [6] | percent effect (mortality, anti-feeding or growth inhibition) at 12.5 ppm [7] | percent control (mortality, anti-feedant effect or growth inhibition) at 200 ppm [8] | percent effect (mortality or growth inhibition) at 200 ppm [9]

CC(=O)Nc1nc(C(C)N(C)C(=O)c2cc(C(F)(F)F)cc(C(F)(F)F)c2)n(-c2ncccn2)n1 (stereo not shown) [Compound P17, N-[1-(5-acetamido-2-pyrimidin-2-yl-1,2,4-triazol-3-yl)ethyl]-N-methyl-3,5-bis(trifluoromethyl) benzamide]
≥ 80%: mortality at 200 ppm [12] | mortality at 50 ppm [1] | percent control (mortality, anti-feedant effect or growth inhibition) at 200 ppm [2] | mortality at 200 ppm [11] | mortality at 500 ppm [3] | mortality at 12 ppm [4] | percent effect (mortality or growth inhibition) at 200 ppm [5] | percent effect (mortality or growth inhibition) at 200 ppm [6] | percent effect (mortality or growth inhibition) at 200 ppm [9] | mortality at 24 ppm [13]

Source: patent US12152020B2, “Pesticidally active azole-amide compounds” (SYNGENTA PARTICIPATIONS AG, priority 2018, dated 2024)
